Activity calls are given as the source filed them. No cut-off for these calls is given here.
Columns and labels:
[1] = test system: HaCaT; assay: Cytotoxicity against human HacaT cells assessed as cell viability at 3.12 to 50 uM measured after 48 hrs by MTT assay; type: cell-based; conditions: dose 3.12-50 µM
[2] = test system: Caco-2; assay: Cytotoxicity against human Caco-2 cells assessed as cell viability at 3.12 to 50 uM measured after 48 hrs by MTT assay; type: functional, cell-based; conditions: dose 3.12-50 µM
[3] = test system: NIH3T3; assay: Cytotoxicity against mouse NIH3T3 cells assessed as cell viability at 3.12 to 50 uM measured after 48 hrs by MTT assay; type: cell-based; conditions: nih3t3, 48 h, dose 3.12-50 µM
[4] = test system: NIH3T3; assay: Induction of wound healing in mouse NIH3T3 cells assessed as increase in COL1A2 mRNA level at 12.5 uM by RT-PCR analysis; type: functional, cell-based
[5] = Induction of cell invasion in human HacaT cells at 12.5 uM measured after 24 hrs by transwell assay; type: functional
[6] = test system: HaCaT; assay: Induction of wound healing in human HacaT cells assessed as increase in COL1A2 mRNA level at 12.5 uM by RT-PCR analysis; type: functional, cell-based
[7] = test system: HaCaT; assay: Induction of cell migration in human HacaT cells at 12.5 uM measured after 24 hrs by transwell assay; type: functional
[8] = test system: NIH3T3; assay: Induction of wound healing in mouse NIH3T3 cells assessed as increase in ACTC1 mRNA level at 12.5 uM by RT-PCR analysis; type: functional, cell-based
[9] = test system: HaCaT; assay: Induction of wound healing in human HacaT cells assessed as increase in ACTC1 mRNA level at 12.5 uM by RT-PCR analysis; type: functional, cell-based
[10] = Induction of cell invasion in mouse NIH3T3 cells at 12.5 uM measured after 24 hrs by transwell assay; type: functional
[11] = test system: NIH3T3; assay: Induction of cell migration in mouse NIH3T3 cells at 12.5 uM measured after 24 hrs by transwell assay; type: functional
[12] = species: Mus musculus; assay: Induction of wound healing in BALB/c mouse assessed as reduction in wound area after 6 days; type: functional, organism-based; conditions: time 6.0 day

With `CC(C)[C@@H]1NC(=O)[C@@H](C(C)C)OC(=O)[C@H](C)N(C)C(=O)[C@H](Cc2ccccc2)NC(=O)[C@H](Cc2ccccc2)N(C)C1=O` the Activity [1] was “Non-Toxic”, the Activity [2] was “inactive” and the Activity [3] was “Non-Toxic”. The Activity [4] was “Active”, the Activity [5] was 50% and the Activity [6] was “Active”. The Activity [7] was 50%, the Activity [8] was “Active” and the Activity [9] was “Active”. The Activity [10] was 50%, the Activity [11] was 50% and the Activity [12] was “Active”.

Reference: ChEMBL document CHEMBL5053498, “Acremonamide, a Cyclic Pentadepsipeptide with Wound-Healing Properties Isolated from a Marine-Derived Fungus of the Genus Acremonium” (J Nat Prod, 2021)
